# Experimental data reported in patent US20240335432A1, “THERAPEUTIC COMPOUND FOR NEURONAL CEROID LIPOFUSCINOSIS” (JCR PHARMACEUTICALS CO., LTD., priority 2021, published 2024).
# Experiments:
# [1] = test system: CLN2 cells (GM09668, GM09669, GM10570); experiment: Quantification of autofluorescence as % Fluorescent Area by image analysis (HALO); assay type: cell-based, human; settings: for % Fluorescent Area: 10 days culture
# Method: (§1) Ceroid lipofuscinosis type 2 patient-derived fibroblasts (CLN2 cells, 7 donors: GM09668, GM09669, GM09404, GM10570, GM10672, GM16485, GM16486, Coriell Institute) and normal human dermal fibroblasts (NHDF cells, Cat.No.C-12300, PromoCell GmbH) were cultured in MEM (10370088, Gibco) containing 15% FBS (HyClone) and 1×GlutaMAX™ I (Gibco) (hereafter referred to as MEM). Each cell was diluted to 0.5×10^5 cells/mL with MEM and 15 mL of each cell suspension was seeded in T75 flask (3123-075, IWAKI Inc.). Cells were cultured under 37° C., 5% CO2 conditions.
# (§2) Soraprazan (Symeres) was dissolved in Dimethyl sulfoxide (DMSO) to prepare soraprazan stock solution with concentrations of 1, 10, and 100 mM. Each soraprazan stock solution was diluted 1/100 concentration with MEM to prepare media with final concentrations of 0.1, 1, and 10 μM of soraprazan (0.0367, 0.367, and 3.67 μg/mL, respectively). In addition, DMSO was diluted to 1/100 concentration with MEM, which was used as a negative control (0 μM soraprazan). Hereinafter the prepared media herein were referred to as soraprazan-containing media collectively.
# Each of the CLN2 cells and the NHDF cells cultured in Example 2-1 was washed twice with Dulbecco's Phosphate-Buffered Saline (DPBS, Gibco) and detached from the flask using 1 mL of 0.25% Trypsin-EDTA (Gibco). After 10 mL of MEM was added, each cell was collected in a 15 mL tube and centrifuged at room temperature at 1000 rpm for 5 minutes, and the supernatant was removed. Then, each cell was suspended at cell density of 2×10^5 cells/mL in one of soraprazan-containing media (0, 0.1, 1, and 10 μM). Then the cell suspension was dispensed in 96-well plates (655956, Gliner) with 0.4×10^5 cells per well (200 μL per well). Cells were cultured at 37° C., in the presence of 5% CO2 for 10 days. During the culture, the medium in each well was exchanged to new corresponding soraprazan-containing medium at 3, 6, and 9 days after seeding.
# The observation of autofluorescence was performed after changing the medium to FluoroBrite DMEM (A1896701, Gibco) under GFP detection conditions (BZX filter GFP, excitation wavelength:470/40 nm, absorption wavelength:525/50 nm, dichroic mirror: 495 nm).
# To quantify the fluorescence intensity of autofluorescence, the same tests as in Examples 2-1 to 2-4 were performed on 3 types of CLN2 cells (GM09668, GM09669, GM10570) using soraprazan-containing medium, which contained 0, 1, and 10 μM of soraprazan, respectively. It was confirmed again that the fluorescent intensity was reduced in cells cultured in soraprazan-containing medium particularly at a concentration of 10 μM. Then, the ratio of the area where fluorescent was detected in the image (fluorescent area) to the total area of the image occupied by the cells (% Fluorescent Area) was calculated using the image analysis software HALO® (v3.2.1851.354, Indica Labs). As the analysis algorithms, Indica Labs-Area Quantification FL v2 1.6 was used. Herein the area where fluorescent was detected, irrespective of the fluorescent intensity, was defined as fluorescent area, which corresponds the area where a certain amount of lipofuscin existed.
# CLN2 cells = experiment: Observation of autofluorescent material (lipofuscin) in CLN2 patient-derived cells by fluorescence microscopy; assay type: cell-based, human; settings: CLN2 cells of 7 donors, 0.1, 1, 10 μM soraprazan, particularly at 10 μM, 10 days; FIGS. 1-8
# Method: as §1, §2
# Each of the CLN2 cells and the NHDF cells cultured in Example 2-1 was washed twice with Dulbecco's Phosphate-Buffered Saline (DPBS, Gibco) and detached from the flask using 1 mL of 0.25% Trypsin-EDTA (Gibco). […]
# TPP1 knockout (KO) mice = experiment: Administration test using pathological model animals, fluorescence intensities of tissues; assay type: in vivo, mouse; settings: oral or intravenous soraprazan versus negative control group
# Method: A test can be performed in which an effect of soraprazan on removing lipofuscin accumulated in animal tissues by soraprazan is evaluated using mammals in which a causative gene of neuronal ceroid lipofuscinosis has been knocked out as pathological model animals. For example, a test can be performed in which an effect of soraprazan on removing lipofuscin accumulated in mouse tissues by soraprazan is evaluated using TPP1 knockout (KO) mice, which are neuronal ceroid lipofuscinosis type 2 (CLN2) pathological model cells. Generation of the TPP1 KO mice can be performed using a conventionally known method. […]
# After a certain time period, for example 0.25, 0.5, 1, 2, 4, 6, 8, or 24 hours after the last administration of a chronic treatment between one week and 12 months, all TPP1 KO mice are anesthetized with isoflurane and perfused with saline from the left ventricle for 4-5 minutes for blood removal. After that, tissues (brain, heart, lungs, liver, spleen, kidneys, quadriceps, thymus, thoracic vertebrae, femur) and peripheral blood, of which fluorescence intensities are to be measured, are collected, and are stored in physiological saline to prevent drying. Fluorescence intensity measurement of lipofuscin is performed using an appropriate fluorescence intensity measuring instrument. […]
# [2] = test system: PPT1 knockout (KO) HEK293T cells or PPT1 KO CHO cells; experiment: Lipofuscin fluorescence emission measurement in pathological model cells; assay type: cell-based; settings: final soraprazan concentrations 100 μM-10 nM, versus 100% DMSO added
# Method: Using mammalian cells in which a causative gene of neuronal ceroid lipofuscinosis has been knocked out as pathological model cells, a test can be performed in which an effect of removing lipofuscin accumulated in the cells by soraprazan is evaluated. For example, using PPT1 knockout (KO) HEK293T cells or PPT1 KO CHO cells, which are pathological model cells of neuronal ceroid lipofuscinosis type 1 (CLN1), a test can be performed in which an effect of removing lipofuscin accumulated in the cells by soraprazan is evaluated. Acquisition of a PPT1 KO cell line can be achieved using a conventionally known method.
# Soraprazan is dissolved in dimethyl sulfoxide (DMSO) to a concentration of 10 mM. […]
# Relative amounts of lipofuscin accumulated in cells can be measured by observing green autofluorescence emitted from the cells using a fluorescence microscope as described below. […] Then, under a fluorescence microscope, for example, excitation light with wavelength of 485 nm is irradiated to the cells and strength of emitted light from the cells with wavelength of 521 nm is measured. As a fluorescence microscope, for example, EVOS FLoid Imaging System (Thermo Fisher Scientific) can be used, and in this case, wavelengths of excitation light and observation light can be respectively set to 482 nm and 532 nm. […]
smiles,measurement,setting,value
"COCCO[C@@H]1c2ccn3c(C)c(C)nc3c2N[C@H](c2ccccc2)[C@H]1O [Soraprazan, soraprazan]",fluorescent intensity (autofluorescence),"[1]; 3 types of CLN2 cells, 1 and 10 μM soraprazan, particularly at 10 μM, FIGS. 9-11",reduced
same,% Fluorescent Area,"[1]; GM09668 cells, 1 μM soraprazan",0.944%
same,% Fluorescent Area,"[1]; GM09668 cells, 10 μM soraprazan",2.07%
same,% Fluorescent Area,"[1]; GM09669 cells, 1 μM soraprazan",10.9%
same,% Fluorescent Area,"[1]; GM09669 cells, 10 μM soraprazan",2.34%
same,% Fluorescent Area,"[1]; GM10570 cells, 1 μM soraprazan",12.3%
same,% Fluorescent Area,"[1]; GM10570 cells, 10 μM soraprazan",0.766%
same,"fluorescent intensity (autofluorescence, lipofuscin accumulation)",CLN2 cells,markedly reduced
same,amount of lipofuscin accumulated in each of the tissues (fluorescence intensity),TPP1 knockout (KO) mice,reduces the amount of lipofuscin
same,amount of lipofuscin accumulated in the cells (fluorescence intensity),[2],decreases according to the concentration of soraprazan
